The values below come from patent publication US12503483B2, “Gemcitabine amphiphile prodrugs” (NANOMED HOLDINGS PTY LTD, priority 2018, dated 2025).

Data set [1] can be described thus: Water penetration scan by polarized optical microscopy (POM). The data set is classed as physicochemical. The settings on record: for Appearance of the Lyotropic phase at excess water (25° C.-50° C.): POM, equilibration 1 h; for Lyotropic phase formed in water penetration scan: neat amphiphile to pure water gradient, temperature as worded. The procedure:
Polarized Optical Microscopy (POM): Samples used for Polarized Optical Microscopy (POM) were prepared by placing a small amount of prodrug amphiphile on a microscope slide and covered with a cover slip. Water was placed on the edges of the cover slip and allowed to flow into the sample by capillary action. The microscope slide was placed in a Linkam PE94 hot stage (Linkam Scientific Instruments Ltd. Surrey, England) and heated at 3° C./min between room temperature and 50° C. […] Images were captured with a Nikon DS-Ri-1 camera. All images were taken at 100× magnification.
(§1) The results of the water penetration scans and SAXS are summarised in Tables 1 and 2 and indicate that various self-assembled lyotropic liquid crystalline phases were formed for the different Gem apmphiphiles, with a broad range of mesophases from lamellar crystalline structure to lamellar liquid crystalline, cubic mesophases and sponge mesophases.
The textures obtained from water penetration scans along the established concentration gradient from neat amphiphile to pure water provide a quick insight into the lyotropic phase behaviour of a surfactant/water system. Melted neat amphiphile was placed on a microscopic slide and water was then introduced around the edge.

Data set [2] is described as follows: SAXS phase behaviour of hydrated Gem amphiphiles. Format: physicochemical. The settings on record: equilibration 48 h. The procedure:
SAXS analyses of the bulk and lyotropic phases of the amphiphiles were performed on a Bruker NanoSTAR laboratory SAXS instrument (Brucker AXS, Kalsruhe, Germany).
The equilibrated lyotropic phases were placed into a demountable button sample cells. For the analysis of the dispersions, a multi-capillary holder was used. Button cells and capillary holder interchangeably fit into a block setup that was temperature-controlled with a Peltier heater-cooler system. 2D scattering images were radially averaged to conventional 1 D scattering plots and as a function of the q value (Å-1) where q is the length of the scattering vector which was calculated using the formula q=(4π/λ)sin(θ/2), where A is the wavelength and 6 is the scattering angle.
The mesophases formed were determined by indexing peaks using the reflection laws as described by De Campo et al., Langmuir, 2004. 20(13), 5254-5261. Small angle X-ray scattering patterns of emulsions and liposomes display large broad peaks while liquid crystalline phases of highly ordered nanostructured particles such as cubosomes and hexosomes display distinct sharp peaks. The relative positions of the peaks (“spacing”) allows for the elucidation of the symmetry of the structure. The interplanar distance (d) between two reflecting planes may be calculated using the formula d=(2π)/q, where q is the absolute position of the peak. This, in turn allows for the calculation of the lattice parameter (a), the size of the unit cell, to be calculated.
as §1

The test system of data set [3] is Carboxylesterase from porcine liver. Description: In-situ enzymatic bioconversion of prodrug nanoparticles (LC/MS). The settings on record: DMPC/cholesterol nanoparticles, 50 uM prodrug, 33.7 units/mL, 37° C.; for Bioconversion to Gemcitabine: FIG. 7b. Format: in vitro ADME. As to the method:
Nanoparticle dispersions of a mixture of Dimyristoylphosphatidylcholine and cholesterol with either (i) Gemcitabine-Phytanyl, (ii) Gemcitabine-PEG3-oleoyl or (iii) Gemcitabine-PEG3-oleoylamide were made at […] concentration of Gemcitabine prodrugs. Carboxylesterase solution from porcine liver obtained from Sigma-Aldrich was added to the nanoparticle dispersions, and the enzyme concentration in each respective nanoparticle dispersion was set to 33.7 units/mL.
The time at which the enzyme solution was added was taken as time zero for the hydrolysis reaction. The mixture was maintained at 37° C. throughout the experiment. The concentration of the hydrolysis product was measured at various time intervals using LC/MS and LC/MS^2 for the detection of prodrug converted to the active drug Gemcitabine. The time at which the sample was injected into the LC column was taken to be the reaction time for such sample. The hydrolysis progress curve, showing the decrease in the concentration of original substrate was plotted against time, whereas the bioconversion to Gemcitabine was determined by MS^2 methods. Standard curves for both prodrugs and the active bioconverted gemcitabine was assessed by using standard samples.
Thermo Finnigan (Finnigan LCQ Series, Thermo Scientific, USA) LC/MS equipped with an electron spray ionization (ESI) was used to assess the enzymatic reaction using both MS and MS^2 mode. The prodrug depletion was detected by negative ion for MS. The conversion of the prodrug to the Gemcitabine was detected by MS^2 at 112.1. 10 μl of sample withdrawn from the reaction solution was injected directly into a Phenomenex C8 150 mm×2 mm 5 uLuna column (Phenomenex, Australia). A 100% Methanol solution was used as mobile phase with the flow rate of 0.5 ml/min. The sample after the column separation was eluted to ESI source. The capillary temperature and ion spray voltage were set at 350° C. and 4.60 respectively. The sample temperature was well maintained at 37° C. during the entire measurement by incubating the samples in the temperature controlled auto-sampler. Data were acquired and processed with Xcalibur Quan chromatography software.
The decreased prodrug was calculated as the percentage of the area under the peak of Gemcitabine-prodrug compared to that before addition of the enzyme. The amount of Gemcitabine produced, was calculated from the area under the peak at 3.4 min related to Gemcitabine at 263 and its MS^2 at 112.1.

In the next data set the test system is CACO2 cell line. As to the kind of experiment: MTS cytotoxicity assay, 72 hours. The data set is classed as cell-based. Conditions: CACO2, 72 hours, prodrugs as nanoparticle dispersions. As to the method: (§2) The cytotoxicity of gemcitabine nanoparticles dispersion made from gemcitabine amphiphiles in the presence or absence of DMPC-cholesterol was evaluated in comparison to gemcitabine alone in several pancreatic cell lines including CF Pac-1, BxPC3, Panc-1 and MIA PaCa-2, MCF7and CACO2 cell lines. The cell lines were exposed to media with varying concentrations of the treatments (100-0.001 μM) and incubated for 72 hours. Cell viability was determined using the MTS assay and was conducted in triplicate to derive the IC50 values.
A general note: Tetrazolium dyes change colour on reduction, which living cells bring about.

In a further data set the test system is CFPAC-1 cell line. Description: MTS cytotoxicity assay, 72 hours. Conditions: CFPAC-1, 72 hours, prodrugs as nanoparticle dispersions. The data set is classed as cell-based. As to the method: as §2
In another data set the test system is MCF7 cell line. Description: MTS cytotoxicity assay, 72 hours. Format: cell-based. Conditions: MCF7, 72 hours, prodrugs as nanoparticle dispersions. The procedure: as §2

With `CCCCCCCC/C=C\CCCCCCCC(=O)OCCOCCOCCOC(=O)Nc1ccn([C@@H]2O[C@H](CO)[C@@H](O)C2(F)F)c(=O)n1` (relative stereo) [Gem-PEG3-oleoyl, 2′-deoxy-2′,2′-difluoro-N4-((((cis-9, octadecenoyl)oxy-triethyleneglycol)oxy)carbonyl) cytidine], in data set [1], the “Appearance of the Lyotropic phase at excess water (25° C.-50° C.)” value (“Appearance of the Lyotropic phase” for short) is given as “Birefringent ( lamellar)”. The “Lyotropic phase lattice parameter” value in data set [2] (25° C.) is reported as 55.26 ± 0.5 Å. Also, in data set [2] (37° C.), the “Lyotropic phase lattice parameter” value is on record as 55.26 ± 0.5 Å. In data set [3], the “Prodrug reduction (hydrolysis) by CES enzyme” value (from here on “Prodrug reduction (hydrolysis)”) is “reduced to Gem-PEG3 and the oleic acid quickly”; the “Bioconversion to Gemcitabine” value was “bioconverted Gemcitabine very slowly”.
For the compound `CCCCCCCC/C=C\CCCCCCCC(=O)OCCOCCOCCOCCOCCOCCOC(=O)Nc1ccn([C@@H]2O[C@H](CO)[C@@H](O)C2(F)F)c(=O)n1` (relative stereo) [Gem-PEG6-oleoyl, 2′-deoxy-2′,2′-difluoro-N4-((((cis-9, octadecenoyl)-oxy-hexaethyleneglycol)oxy)carbonyl) cytidine], in data set [1], the “Appearance of the Lyotropic phase” value was “An isotropic band, cubic phase”. In data set [2] (25° C.), the Lyotropic phase result is listed as “Ia3d” and the “Lyotropic phase lattice parameter” value is 125.2 ± 0.5 Å. In addition, in data set [2] (37° C.), the Lyotropic phase result is reported as “Ia3d” and the “Lyotropic phase lattice parameter” value is recorded as 124.4 ± 0.5 Å.
Take `CCCCC/C=C\C/C=C\CCCCCCCC(=O)OCCOCCOCCOC(=O)Nc1ccn([C@@H]2O[C@H](CO)[C@@H](O)C2(F)F)c(=O)n1` (relative stereo) [Gem-PEG3-linoleoyl, 2′-deoxy-2′,2′-difluoro-N4-((((cis-9, cis-12-octadecadienoyl)-oxy-triethyleneglycol)oxy)carbonyl) cytidine]: the “Appearance of the Lyotropic phase” value in data set [1] is reported as “An isotropic band, emulsion”. Further, the Lyotropic phase result in data set [2] (25° C.) and in data set [2] (37° C.) was “Sponge phase (L3)” in each case. Moreover, the 50% inhibitory concentration (IC50) came to 200 nM in the data set on CACO2 cell line, 583 nM with CFPAC-1 cell line and 100 nM in the data set with MCF7 cell line.
With `CCCCCCCC/C=C\CCCCCCCCOC(=O)Nc1ccn([C@@H]2O[C@H](CO)[C@@H](O)C2(F)F)c(=O)n1` (relative stereo) [Gem-Ole, 2′-deoxy-2′,2′-difluoro-N4-(((cis-9, octadecenyl)oxy)carbonyl) cytidine], in data set [1], the “Appearance of the Lyotropic phase” value is “Anisotropic band”; the “Lyotropic phase formed in water penetration scan” value was “traditional lamellar (La) phase at room temperature and 3D cubic (Pn3m) phase at elevated temperatures above 33 °C”.
For the compound `CCCCCCCC/C=C\CCCCCCCC(=O)NCCOCCOCCOC(=O)Nc1ccn([C@@H]2O[C@H](CO)[C@@H](O)C2(F)F)c(=O)n1` (relative stereo) [Gem-PEG3-oleoylamide, 2′-deoxy-2′,2′-difluoro-N4-((((cis-9, octadecenoyl)amino-triethyleneglycol)oxy)carbonyl) cytidine], in data set [3], the “Prodrug reduction (hydrolysis)” value was “reduced at a lower rate” and the “Bioconversion to Gemcitabine” value is given as “produced Gemcitabine sustainably”. The Time of prodrug reduction in data set [3] (FIG. 7a) was determined as 6 h.
`CC/C=C\C/C=C\C/C=C\CCCCCCCC(=O)OCCOCCOCCOCCOCCOCCOC(=O)Nc1ccn([C@@H]2O[C@H](CO)[C@@H](O)C2(F)F)c(=O)n1` (relative stereo) [Gem-PEG6-linolenoyl, 2′-deoxy-2′,2′-difluoro-N4-((((cis-9, 12, 15 octadecatrienoyl)-oxy-hexaethyleneglycol)oxy)carbonyl) cytidine]: the “Appearance of the Lyotropic phase” value in data set [1] is given as “Emulsion”. Further, the Lyotropic phase result in data set [2] (25° C.) is “Sponge phase (L3)”.
Turning to `CC(C)CCCC(C)CCCC(C)CCCC(C)CCOC(=O)Nc1ccn([C@@H]2O[C@H](CO)[C@@H](O)C2(F)F)c(=O)n1` (stereo partly drawn) [Gem-Phy, 2′-deoxy-2′,2′-difluoro-N4-(((3,7,11,15-tetramethyl-hexadecyl)oxy)carbonyl) cytidine], in data set [1], the “Appearance of the Lyotropic phase” value is listed as “An isotropic band”; the “Lyotropic phase formed in water penetration scan” value was 3D inversed bicontinous cubic phase (Pn3m space group) initially and then transform to 2D hexagonal phase. In data set [2] (25° C.), the Lyotropic phase entry was “Ia3d” and the “Lyotropic phase lattice parameter” value was 135.8 ± 0.5 Å. Further, in data set [2] (37° C.), the Lyotropic phase result was “Ia3d” and the “Lyotropic phase lattice parameter” value was 135.8 ± 0.5 Å. The “Prodrug reduction (hydrolysis)” value in data set [3] is listed as “slowest prodrug to reduce completely”.
On to `CCCCC/C=C\C/C=C\CCCCCCCCOC(=O)Nc1ccn([C@@H]2O[C@H](CO)[C@@H](O)C2(F)F)c(=O)n1` (relative stereo) [Gem-Lin, 2′-deoxy-2′,2′-difluoro-N4-(((cis-9,12,octadecadienenyl)oxy)carbonyl) cytidine], for which the “Appearance of the Lyotropic phase” value in data set [1] was “A birefringent band (LC)”. Besides, the “Lyotropic phase lattice parameter” value in data set [2] (25° C.) and in data set [2] (37° C.) was 53.2 ± 0.5 Å in each case.

The term IC50 denotes the concentration that inhibits the measured activity by half.
